Starred links: 1 amine or outer side, 2 acyl side, 3 side chain; linkers in the order of their positions; H or OH if unused. Non-standard residues stand in square brackets, D forms with d. Residues, ends and D or L forms follow the SMILES beside them. dPro(4R-(4-pyridylmethyl)) = O=C(O)[C@H]1C[C@@H](Cc2ccncc2)CN1; Trp(βS-Me,4-F) = C[C@@H](c1c[nH]c2cccc(F)c12)[C@H](N)C(=O)O; Bip(4'-COOH) = N[C@@H](Cc1ccc(-c2ccc(C(=O)O)cc2)cc1)C(=O)O; dPro(3S-(4-F-Bn)) = O=C(O)[C@@H]1NCC[C@@H]1Cc1ccc(F)cc1; X41 = O=C([C@@H](N[*:1])[C@@H](O)c1ccncc1)[*:2]; Ala(pyrimidin-5-yl) = N[C@@H](Cc1cncnc1)C(=O)O; Phe(4-COOH) = N[C@@H](Cc1ccc(C(=O)O)cc1)C(=O)O; Pro(cis-4-F) = O=C(O)[C@@H]1C[C@H](F)CN1; d(αMeF) = C[C@@](N)(Cc1ccccc1)C(=O)O; d(αMeD) = C[C@@](N)(CC(=O)O)C(=O)O; 4Pal = N[C@@H](Cc1ccncc1)C(=O)O; aThr = C[C@H](O)[C@H](N)C(=O)O; d(αMeS) = C[C@@](N)(CO)C(=O)O; NMeDab = CN[C@@H](CCN)C(=O)O; Dab = NCC[C@H](N)C(=O)O; Aib = CC(C)(N)C(=O)O
Each molecule was assayed against T1, IL-1β (Homo sapiens, UniProt P01584) (assay: IL-6 assay in MRC5 cells: inhibition of IL-1β induced IL-6 secretion (AlphaLISA)). Conditions: inhibition of IL-1β induced IL-6 secretion in MRC5 cells; compound pre-incubated 1 hour with recombinant human IL-1β; read-out: MRC5 IC50.
T1 construct: purchased BioLegend 579404
Format: cell-based
Procedure, shortened: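 Compound was pre-incubated 1 h at ambient temperature with recombinant human IL-1β at 2λ EC80 before adding human lung fibroblast MRC5 cells (3000/well) in EMEM with 0.025% BSA. After overnight culture at 37 °C, 5% CO2, secreted IL-6 in conditioned medium was measured by AlphaLISA; IC50 from 4-parameter logistic fits.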

T1 sequence (P01584 117-269): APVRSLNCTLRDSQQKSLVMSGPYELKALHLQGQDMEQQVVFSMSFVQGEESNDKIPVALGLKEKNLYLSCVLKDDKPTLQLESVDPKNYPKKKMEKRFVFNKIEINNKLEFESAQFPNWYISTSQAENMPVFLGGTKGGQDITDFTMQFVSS

Row | SMILES | IC50 [nM]
1 | C[C@@H](c1c[nH]c2cccc(F)c12)[C@@H]1NC(=O)[C@@H]2C[C@H](F)CN2C(=O)CNC(=O)[C@H](Cc2ccc(C(=O)O)cc2)NC(=O)[C@H](Cc2ccncc2)NC(=O)[C@H](Cc2ccc(-c3ccc(C(=O)O)cc3)cc2)NC(=O)[C@H]2C[C@@H](Cc3ccncc3)CN2C(=O)CNC(=O)[C@H](CCN)NC(=O)[C@H](CCC(N)=O)NC(=O)[C@H](CC(=O)O)NC(=O)[C@@](C)(Cc2ccccc2)NC(=O)[C@H](Cc2c[nH]c3ccccc23)NC(=O)[C@H](CO)NC(=O)C(C)(C)NC1=O [Example 259] (cyclo([Bip(4'-COOH)][4Pal][Phe(4-COOH)]G[Pro(cis-4-F)][Trp(βS-Me,4-F)][Aib]SW[d(αMeF)]DQ[Dab]G[dPro(4R-(4-pyridylmethyl))])) | 0.014
2 | COC[C@@]1(C)NC(=O)[C@H](Cc2c[nH]c3ccccc23)NC(=O)[C@H](CO)NC(=O)C(C)(C)NC(=O)[C@H]([C@@H](C)c2c[nH]c3cccc(F)c23)NC(=O)[C@@H]2C[C@H](F)CN2C(=O)CNC(=O)[C@H](Cc2ccc(C(=O)O)cc2)NC(=O)[C@H](Cc2ccncc2)NC(=O)[C@H](Cc2ccc(-c3ccc(C(=O)O)cc3)cc2)NC(=O)[C@H]2C[C@@H](Cc3ccncc3)CN2C(=O)CNC(=O)[C@H](CCN)NC(=O)[C@H](CCC(N)=O)NC(=O)[C@H]([C@H](C)O)NC1=O [Example 261] (cyclo([Bip(4'-COOH)][4Pal][Phe(4-COOH)]G[Pro(cis-4-F)][Trp(βS-Me,4-F)][Aib]SW[d(αMeS)](Me)[aThr]Q[Dab]G[dPro(4R-(4-pyridylmethyl))])) | 0.017
3 | C[C@@H](c1c[nH]c2cccc(F)c12)[C@@H]1NC(=O)[C@@H]2C[C@H](F)CN2C(=O)CNC(=O)[C@H](Cc2ccc(C(=O)O)cc2)NC(=O)[C@H](Cc2ccncc2)NC(=O)[C@H](Cc2ccc(-c3ccc(C(=O)O)cc3)cc2)NC(=O)[C@H]2[C@@H](Cc3ccc(F)cc3)CCN2C(=O)CNC(=O)[C@H](CCN)NC(=O)[C@H](CCC(N)=O)NC(=O)[C@H]([C@@H](O)c2ccncc2)NC(=O)[C@@](C)(CC(=O)O)NC(=O)[C@H](Cc2c[nH]c3ccccc23)NC(=O)[C@H](CO)NC(=O)C(C)(C)NC1=O [Example 263] (cyclo([Bip(4'-COOH)][4Pal][Phe(4-COOH)]G[Pro(cis-4-F)][Trp(βS-Me,4-F)][Aib]SW[d(αMeD)][X41]Q[Dab]G[dPro(3S-(4-F-Bn))])) | 0.017

The next lines start with the values.

Row | IC50 [nM] | SMILES
4 | 0.013 | COC[C@@]1(C)NC(=O)[C@H](Cc2c[nH]c3ccccc23)NC(=O)[C@H](CO)NC(=O)C(C)(C)NC(=O)[C@H]([C@@H](C)c2c[nH]c3cccc(F)c23)NC(=O)[C@@H]2C[C@H](F)CN2C(=O)CNC(=O)[C@H](Cc2ccc(C(=O)O)cc2)NC(=O)[C@H](Cc2ccncc2)NC(=O)[C@H](Cc2ccc(-c3ccc(C(=O)O)cc3)cc2)NC(=O)[C@H]2C[C@@H](Cc3ccncc3)CN2C(=O)CNC(=O)[C@H](CCN)NC(=O)[C@H](CCC(N)=O)NC(=O)[C@H](Cc2cncnc2)NC1=O [Example 260] (cyclo([Bip(4'-COOH)][4Pal][Phe(4-COOH)]G[Pro(cis-4-F)][Trp(βS-Me,4-F)][Aib]SW[d(αMeS)](Me)[Ala(pyrimidin-5-yl)]Q[Dab]G[dPro(4R-(4-pyridylmethyl))]))
5 | 0.02 | C[C@@H](c1c[nH]c2cccc(F)c12)[C@@H]1NC(=O)[C@@H]2C[C@H](F)CN2C(=O)CNC(=O)[C@H](Cc2ccc(C(=O)O)cc2)NC(=O)[C@H](Cc2ccncc2)NC(=O)[C@H](Cc2ccc(-c3ccc(C(=O)O)cc3)cc2)NC(=O)[C@H]2C[C@@H](Cc3ccncc3)CN2C(=O)CNC(=O)[C@H](CCN)N(C)C(=O)[C@H](CCC(N)=O)NC(=O)[C@H](Cc2cncnc2)NC(=O)C(C)(C)NC(=O)[C@H](Cc2c[nH]c3ccccc23)NC(=O)[C@H](CO)NC(=O)C(C)(C)NC1=O [Example 262] (cyclo([Bip(4'-COOH)][4Pal][Phe(4-COOH)]G[Pro(cis-4-F)][Trp(βS-Me,4-F)][Aib]SW[Aib][Ala(pyrimidin-5-yl)]Q[NMeDab]G[dPro(4R-(4-pyridylmethyl))]))
